Test results: USRE49816E1, “Dipeptides as inhibitors of human immunoproteasomes” (CORNELL UNIVERSITY, priority 2014, dated 2024)

Tests used:
[1] = tested on: Karpas 1106p cells; experiment: Cytotoxicity (LD50) against Karpas lymphoma cells; type: cell-based, human; conditions: Table 3
From the text: Table 3 lists the inhibition kinetic parameters, selectivity index, and calculated log Ps of selected dipeptides.

[2] = molecular target: hu i-20S β5i-subunit (Homo sapiens, UniProt P20618+P28062); experiment: N,C-capped dipeptides IC50, Ac-ANW-AMC fluorescence assay; type: biochemical; conditions: for SI (selectivity index): Hu c-20S over Hu i-20S
Method: (§1) All inhibitory assays for N,C capped dipeptides were performed in a black solid-bottom 96-well plate. In general, compound plates were prepared starting from 10 mM in 3× series dilution to 15 μM. 1 μl of DMSO stock was transferred to a black 96-well plate and 100 μL of reaction mixture were added 15 μM N-acetyl-Alanine-Asparagine-Tryptophan-7-amino-4-methylcourmarin (Ac-ANW-AMC) or 25 μM succinyl-Leucine-Leucine-Valine-Tyrosine-7-amino-4-methyl-courmarin (succ-LLVY-AMC), 0.4 nM hu i-20S β5i-subunit or 0.2 nM hu c-20S β5c-subunit, 0.02% SDS, 1% BSA, 0.5 mM EDTA in 20 mM HEPES buffer at pH7.5. The plates were then spun at 1000 rpm for 1 minute, and the fluorescence units of each well were recorded at λex=360 nm, λem=460 nm for 2 hours. The slopes of the initial linear range of the time course were used to calculate the velocity, and relative activities were normalized to the velocities of the DMSO control.

[3] = molecular target: hu c-20S β5c-subunit (Homo sapiens, UniProt P20618+P28074); experiment: N,C-capped dipeptides IC50, succ-LLVY-AMC fluorescence assay; type: biochemical
Method: as §1

| SMILES | LD50 [1] [µM] | IC50 [2] [µM] | SI (selectivity index) [2] | IC50 [3] [µM] |
| --- | --- | --- | --- | --- |
| COC[C@H](NC(=O)CCc1ccccc1)C(=O)N[C@@H](C)C(=O)NCc1cccc2ccccc12 [DPLG-2048, (S)-3-methoxy-N—((S)-1-((naphthalen-1-ylmethyl)amino)-1-oxopropan-2-yl)-2-(3-phenylpropanamido)propanamide] | >100 | 34.9 | 1.7 | 59.8 |
| COC[C@H](NC(=O)CCc1ccccc1)C(=O)N[C@@H](Cc1ccc(F)cc1)C(=O)NCc1cccc2ccccc12 [DPLG-2054, (S)-3-(4-fluorophenyl)-2-((S)-3-methoxy-2-(3-phenylpropanamido)propanamido)-N-(naphthalen-1-ylmethyl)propanamide] | >100 | > 100 | <0.8 | 75.8 |
| C[C@H](NC(=O)[C@H](CC(=O)NOC(C)(C)C)NC(=O)CCc1ccccc1)C(=O)NCc1ccnc2ccccc12 [DPLG-2068, (S)—N^4-(tert-butoxy)-N^1—((S)-1-oxo-1-((quinolin-4-ylmethyl)amino)propan-2-yl)-2-(3-phenylpropanami-do)succinamide] | >100 | 3.06 | 9.3 | 28.4 |
| C[C@H](NC(=O)[C@H](CC(=O)NOC(C)(C)C)NC(=O)CCc1ccccc1)C(=O)NCc1cccc2ncccc12 [DPLG-2073, (S)—N^4-(tert-butoxpropan-2-yl)-2-(3-phenylpropanami-do)succinamide] | >100 | 1.37 | 10 | 13.3 |
| C[C@H](NC(=O)[C@H](CC(=O)NOC(C)(C)C)NC(=O)c1cnccn1)C(=O)NCc1cccc2ccccc12 [DPLG-2098] | >100 | – | – | – |
| CC(=O)N[C@@H](Cc1ccc(F)cc1)C(=O)NCc1cccc2ccccc12 [DPLG-2109] | >100 | 57.1 | >2 | > 100 |
| C[C@H](NC(=O)[C@H](CC(=O)NOC(C)(C)C)NC(=O)Cc1ccccc1)C(=O)NCc1cccc2ccccc12 [DPLG-2142, (S)—N4-(tert-butoxy)-N1-((S)-1-((naphthalen-1-ylmethyl)amino)-1-oxopropan-2-yl)-2-(2-phenylacetamido)succinamide] | 9.1 | – | – | – |
| COC[C@H](NC(=O)[C@H](CC(=O)NC(C)(C)C)NC(=O)CCc1ccccc1)C(=O)NCc1cccc2ccccc12 [DPLG-2230, (S)—N^4-(tert-butyl)-N^1—((S)-3-methoxy-1-((naphthalen-1-ylmethyl)amino)-1-oxopropan-2-yl)-2-(3-phenylpropanamido)succinamide] | 1.11 | – | – | – |
| COC[C@H](NC(=O)[C@H](CC(=O)NC(C)(C)C)NC(=O)c1cc(C)on1)C(=O)NCc1cccc2ccccc12 [DPLG-2244, (S)—N^4-(tert-butyl)-N^1((S)-3-methoxy-1-((naphthalen-1-ylmethyl)amino)-1-oxopropan-2-yl)-2-(5-methylisoxazole-3-carboxamido)succinamide] | 2.20 | – | – | – |
| C[C@H](NC(=O)[C@H](CC(=O)NC(C)(C)C)NC(=O)C(=O)c1c[nH]c2ccccc12)C(=O)NCc1cccc2ccccc12 [DPLG-3053] | 0.22 | – | – | – |
| CC(C)(C)NC(=O)C[C@H](NC(=O)CCc1ccccc1)C(=O)N[C@@H](Cc1ccncc1)C(=O)NCc1cccc2ccccc12 [DPLG-21033] | – | 0.0053 | 83 | 0.438 |
| CC(C)(C)NC(=O)C[C@H](NC(=O)CCc1ccccc1)C(=O)N[C@@H](Cc1ccc(F)cc1)C(=O)NCc1ccc(-c2ccccc2)cc1 [DPLG-21049] | – | 0.133 | 5 | 0.7 |
| CC(C)(C)NC(=O)C[C@H](NC(=O)CCc1ccccc1)C(=O)N[C@@H](Cc1ccc(F)cc1)C(=O)NCc1cccc(-c2ccccc2)c1 [DPLG-21050] | – | 0.026 | >3846 | > 100 |
